Counter-ions that a name gives are not always drawn. Like-named read-outs stand apart in the source and are kept apart here. Marks after values point to notes of the source that are not given here.
How the values were obtained:
[1] = tested on: P. falciparum D6; assay: P. falciparum D6 assay; type: cell-based; conditions: strain D6
[2] = tested on: HepG2 cells; assay: HepG2 cell toxicity (MTT) assay; type: cell-based
Method: (§1) Then 2 μL of DMSO (control) or different concentrations of drugs prepared from 200× DMSO stocks were added to the cultures. […] All experiments were repeated thrice in independent studies where each dose was administered in duplicate (total n=6). HepG2 Cell Toxicity Assay. The 384 well MTT cytotoxicity assay is a modification of the MTT method described by Ferrari et al. optimized for 384-well throughput, with modifications described below.
HepG2 Cell Toxicity assay. The 384 well MTT cytotoxicity assay is a modification of the MTT method described by Ferrari et al.^1 ENREF—26_ENREF—26_ENREF—26 optimized for 384 well throughput. […] 4.25 μL of diluted test compound was then added to the 38.3 μL of media in each well providing a 10 fold final dilution of compound. […] After a 48 hour incubation period, 8 μL of a 1.5 mg/ml solution of MTT diluted in complete MEM media was added to each well. All plates were subsequently incubated in the dark for 1 hour at room temperature. After incubation, the media and drugs in each well was removed by shaking plate over sink, the plates are then left to dry in hood for 15 minutes. […] Plates are put on a 3-D rotator for 15-30 minutes. Absorbance was determined in all wells using a Tecan iControl 1.6 Infinite plate reader.

[3] = tested on: L. major amastigote; assay: L. major amastigote assay; type: cell-based
[4] = tested on: P. falciparum W2; assay: P. falciparum W2 assay; type: cell-based
[5] = tested on: T. brucei brucei Lister 427; assay: Trypanosome replication assay; type: cell-based, Trypanosoma brucei brucei; conditions: 48 h, 48 h, values ±7%
Method: as §1, with “cultures. Cells were incubated at 37° C. for 48 h and counted with a hemocytometer.” for “cultures.”

[6] = tested on: L. major promastigote; assay: L. major promastigote assay; type: cell-based
[7] = tested on: P. falciparum C235; assay: P. falciparum C235 assay; type: cell-based; conditions: read-out: P. falciparum C235 (EC50)
[8] = tested on: T. cruzi; assay: T. cruzi growth inhibition; type: cell-based, Trypanosoma cruzi; conditions: for inhibition at 10 µM: read-out: T. cruzi % inh at 10 μM
[9] = Homo sapiens, HepG2, 48 h, MTT, 48 hour incubation, read-out: HepG2 IC50
[10] = MTT, 48 hour incubation, read-out: HepG2 IC50
[11] = Plasmodium falciparum, strain W2, read-out: P. falciparum W2 (EC50)
[12] = Trypanosoma brucei, concentration giving 50% inhibition of growth of T brucei brucei Lister 427 cells, read-out: Tbb EC50
[13] = Plasmodium falciparum, strain C235
[14] = Homo sapiens, HepG2, 48 h, read-out: HepG2 IC50, MTT, 48 hour incubation
[15] = read-out: HepG2 IC50, MTT, 48 hour incubation
[16] = Trypanosoma brucei, read-out: Tbb EC50, concentration giving 50% inhibition of growth of T brucei brucei Lister 427 cells
[17] = Plasmodium falciparum, W2, read-out: P. falciparum W2 (EC50)
[18] = strain W2, read-out: P. falciparum W2 (EC50)
[19] = concentration giving 50% inhibition of growth of T brucei brucei Lister 427 cells, read-out: Tbb EC50

Structure (SMILES)	EC50 [1] [nM]	EC50 [3] [nM]	EC50 [4, 18] [nM]	EC50 [5, 19] [nM]	EC50 [6] [nM]	EC50 ([7]; strain C235) [nM]	EC50 [8] [nM]	other results
O=S(=O)(c1ccc(-c2ccc3ncnc(Nc4ccc(OCc5cccc(F)c5)c(Cl)c4)c3c2)cc1)N1CCOCC1 [Compound 10a, N-(3-Chloro-4-((3-fluorobenzyl)oxy)phenyl)-6-(4-(morpholinosulfonyl)phenyl)quinazolin-4-amine]	–	–	–	–	–	–	–	EC50 ([1]; Plasmodium falciparum): 220 nM; IC50 [2, 9]: > 15000 nM; EC50 ([2]; Homo sapiens, HepG2, read-out: HepG2 cell growth EC50): > 15000 nM; IC50 [2, 10]: > 20000 nM; EC50 ([3]; Leishmania major): 1600 nM; EC50 [4, 11]: 690 nM; EC50 [5, 12]: 1390 nM; EC50 ([5]; concentration giving 50% inhibition of growth of T brucei brucei Lister 427 cells, listed as NEU-369, read-out: Tbb EC50): 1300 nM; EC50 ([6]; Leishmania major): 1300 nM; EC50 [7, 13]: 410 nM; inhibition at 10 µM ([8]; Trypanosoma cruzi): -46%
O=S(=O)(c1cccc(-c2ccc3ncnc(Nc4ccc(OCc5cccc(F)c5)c(Cl)c4)c3c2)c1)N1CCOCC1 [Compound 10k, N-(3-Chloro-4-((3-fluorobenzyl)oxy)phenyl)-6-(3-(morpholinosulfonyl)phenyl)quinazolin-4-amine]	–	–	–	–	–	–	–	EC50 ([1]; Plasmodium falciparum): 280 nM; IC50 [2, 14]: > 15000 nM; IC50 [2, 15]: > 20000 nM; EC50 ([3]; Leishmania major): > 15000 nM; EC50 [4, 11]: 400 nM; EC50 [5, 16]: 330 nM; EC50 ([6]; Leishmania major): > 15000 nM; EC50 [7, 13]: 290 nM; EC50 ([8]; Trypanosoma cruzi): 1700 nM
O=S(=O)(c1ccc(-c2ccc3ncnc(Nc4ccc(OCc5cccc(F)c5)c(Cl)c4)c3c2)cc1)N1CCCCC1 [Compound 10l, N-(3-Chloro-4-((3-fluorobenzyl)oxy)phenyl)-6-(4-(piperidin-1-ylsulfonyl)phenyl)quinazolin-4-amine]	–	–	–	–	–	–	–	EC50 ([1]; Plasmodium falciparum): 180 nM; IC50 [2, 14]: > 15000 nM; IC50 [2, 15]: > 20000 nM; EC50 ([3]; Leishmania major): > 15000 nM; EC50 [4, 17]: 330 nM; EC50 [5, 16]: 320 nM; EC50 ([6]; Leishmania major): > 15000 nM; EC50 ([7]; Plasmodium falciparum): 240 nM; inhibition at 10 µM ([8]; Trypanosoma cruzi): 1%
O=S(=O)(c1cccc(-c2ccc3ncnc(Nc4ccc(OCc5cccc(F)c5)c(Cl)c4)c3c2)c1)N1CCCCC1 [Compound 10m, N-(3-Chloro-4-((3-fluorobenzyl)oxy)phenyl)-6-(3-(piperidin-1-ylsulfonyl)phenyl)quinazolin-4-amine]	–	–	–	–	–	–	–	EC50 ([1]; Plasmodium falciparum): 330 nM; IC50 [2, 14]: > 15000 nM; IC50 [2, 15]: > 20000 nM; EC50 ([3]; Leishmania major): > 15000 nM; EC50 [4, 17]: 590 nM; EC50 [5, 16]: 460 nM; EC50 ([6]; Leishmania major): > 15000 nM; EC50 ([7]; Plasmodium falciparum): 350 nM; EC50 ([8]; Trypanosoma cruzi): > 50000 nM
O=S(=O)(c1ccc(-c2ccc3ncnc(Nc4ccc(OCc5cccc(F)c5)c(Cl)c4)c3c2)cc1)N1CCCC1 [Compound 10n]	200	> 15000	800	350	> 15000	420	–	IC50 [2, 10]: > 15000 nM; T. cruzi % inh at 10 μM [8]: (10)* %
O=S(=O)(c1cccc(-c2ccc3ncnc(Nc4ccc(OCc5cccc(F)c5)c(Cl)c4)c3c2)c1)N1CCCC1 [Compound 10o]	190	> 15000	480	250	> 15000	300	–	IC50 [2, 10]: > 15000 nM; T. cruzi % inh at 10 μM [8]: (32)* %
O=S(=O)(c1ccc(-c2ccc3ncnc(Nc4ccc(OCc5cccc(F)c5F)c(Cl)c4)c3c2)cc1)N1CCOCC1 [Compound 20h, N-(3-Chloro-4-((2,3-difluorobenzyl)oxy)phenyl)-6-(4-(morpholinosulfonyl)phenyl)quinazolin-4-amine Hydrochloride]	–	–	–	–	–	–	–	IC50 [2, 9]: > 15000 nM; EC50 [5, 12]: 820 nM
Cl.O=S(=O)(c1ccc(-c2ccc3ncnc(Nc4ccc(OCc5ccccc5F)c(Cl)c4)c3c2)cc1)N1CCOCC1 [Compound 20i, N-(3-Chloro-4-((2-fluorobenzypoxy)phenyl)-6-(4-(morpholinosulfonyl)phenyl)quinazolin-4-amine Hydrochloride]	130	> 15000	570	–	710	220	–	IC50 [2, 10]: > 15000 nM; EC50 ([5]; concentration giving 50% inhibition of growth of T brucei brucei Lister 427 cells, Hydrochloride, read-out: Tbb EC50): 1650 nM; EC50 ([5]; concentration giving 50% inhibition of growth of T brucei brucei Lister 427 cells, listed as NEU-565, Hydrochloride, read-out: Tbb EC50): 1700 nM
Fc1cccc(COc2ccc(Nc3ncnc4ccc(-c5cccc(-n6cccn6)c5)cc34)cc2Cl)c1 [NEU-709]	19000	> 15000	19000	7500	> 15000	19000	–	T. cruzi % inh at 10 μM [8]: (10)* %
Fc1cccc(COc2ccc(Nc3ncnc4ccc(-c5ccc(N6CCNCC6)cc5)cc34)cc2Cl)c1 [NEU-710]	380	8600	630	370	> 15000	760	1400	–
Fc1cccc(COc2ccc(Nc3ncnc4ccc(-c5cccc(N6CCSCC6)c5)cc34)cc2Cl)c1 [NEU-713]	440	10000	1300	770	> 15000	780	–	T. cruzi % inh at 10 μM [8]: (55)* %
CN1CCN(c2cccc(-c3ccc4ncnc(Nc5ccc(OCc6cccc(F)c6)c(Cl)c5)c4c3)c2)CC1 [NEU-714]	44	4200	59	550	1900	110	–	T. cruzi % inh at 10 μM [8]: (72)* %
Fc1cccc(Cn2ncc3ccc(Nc4ncnc5ccc(-c6cccc(N7CCOCC7)c6)cc45)cc32)c1 [NEU-734]	910	> 15000	740	840	980	1100	–	T. cruzi % inh at 10 μM [8]: (62)* %
CN1CCN(S(=O)(=O)c2ccc(-c3ccc4ncnc(Nc5ccc(OCc6ccccc6)c(Cl)c5)c4c3)cc2)CC1 [NEU-764]	29	2200	51	610	3400	28	3900	–
CN1CCN(S(=O)(=O)c2ccc(-c3ccc4ncnc(Nc5ccc(OCc6ccccc6)cc5)c4c3)cc2)CC1 [NEU-765]	41	1900	110	630	1500	36	9900	–
COc1ccc(Nc2ncnc3ccc(-c4ccc(S(=O)(=O)N5CCN(C)CC5)cc4)cc23)cc1Cl [NEU-766]	33	> 15000	210	780	5900	58	> 50000	–
CN1CCN(S(=O)(=O)c2ccc(-c3ccc4ncnc(Nc5ccccc5)c4c3)cc2)CC1 [NEU-767]	700	> 15000	1500	1500	6100	730	> 50000	–
CN1CCN(S(=O)(=O)c2ccc(-c3ccc4ncnc(Nc5ccc(F)cc5)c4c3)cc2)CC1 [NEU-768]	360	> 15000	780	2000	12000	380	> 50000	–
CN1CCN(S(=O)(=O)c2ccc(-c3ccc4ncnc(Nc5ccc(Cl)cc5)c4c3)cc2)CC1 [NEU-769]	110	> 15000	390	2400	4600	170	21000	–
CN1CCN(S(=O)(=O)c2cccc(-c3ccc4ncnc(Nc5ccc(OCc6cccc(F)c6)c(Cl)c5)c4c3)c2)CC1 [NEU-770]	38	1200	84	3300	> 15000	33	1400	–
CN1CCN(S(=O)(=O)c2ccc(-c3ccc4ncnc(Nc5ccc6cnn(Cc7cccc(F)c7)c6c5)c4c3)cc2)CC1 [NEU-771]	39	> 15000	90	1200	> 15000	40	1500	–
